Nine compounds from US20110052534A1, “Imidazopyridazine Compounds for Treating Viral Infections” (priority 2009, published 2011) can be followed below.

pEC50: −log10 of the molar value. Counter-ions that a name gives are not always drawn. Like-named read-outs stand apart in the source and are kept apart here.

Assay [1] concerns HCV genotype 1a H77 NS3-5B bicistronic subgenomic replicon. The assay is described as follows: microbe, parasite or virus in culture. The class given is cell-based. As to conditions: Hepatitis C virus; for pEC50: Table 2, luciferase activity after 48 hours, read-out: HCV Genotype 1A Replicon EC50. The text has this: (§1) Two cell lines were used for screening of compounds for inhibiting HCV RNA replication (genoytype 1a and 1b). Genotype la replicon cells, are a Huh-7 derived cell line bearing the genotype 1a H77NS3-5B bicistronic subgenomic replicon. See, Blight, et al., J. Virol. (2003) 77(5): 3181-3190.
(§2) The genotype 1a replicon contains several adaptive mutations (NS4B Q31H, NS5A K68R, NS5A S232I), the luciferase gene and encodes for neomycin resistance. The genotype 1b replicon, also referred to as the ET replicon, is stably transfected with RNA transcripts harboring a I389luc-ubi-neo/NS3-3′/ET replicon with firefly luciferase-ubiquitin-neomycin phosphotransferase fusion protein and EMCV-IRES driven NS3-5B polyprotein containing the cell culture adaptive mutations (E1202G; T12801; K1846T) See, Kreiger, et al., Journal of Virology 75:4614-4624 (2001). Both cell lines were grown in DMEM, supplemented with 10% fetal calf serum, 2 mM Glutamine, Penicillin (100 IU/mL)/Streptomycin (100 μg/mL), 1×nonessential amino acids, and 250 μg/mL G418 (“Geneticin”). They were all available through Life Technologies (Bethesda, Md.). The cells were plated at 0.5×10^4 cells/well in 384 well plates containing compounds. The final concentration of compounds ranged between 0.1 nM to 50 μM and the final DMSO concentration of 0.5%.
(§3) Luciferase activity was measured 48 hours later by adding a Steady glo (Promega, Madison, Wis.). Percent inhibition of replication data was plotted relative to no compound control. Under the same condition, cytotoxicity of the compounds was determined using cell titer glo (Promega, Madison, Wis.). EC50 values were determined from a 10 point dose response curve using 2-4 fold serial dilutions for each compound, which spans a concentration range of at least a 1000 fold. Replicon EC50 values, the concentration of compound required to inhibit 50% of the assay response, were calculated by curve fitting data to the Hill equation, using a non-linear least-squares curve-fitting program. The software tested the data for quality and rejected compounds with high and low activity before fitting the equation below.
(§4) Analysis was performed using an XC50 module and BioAssay Enterprise (Cambridge Soft).
Background: In antiviral work, replicon cells carry a viral genome segment that copies itself.

For assay [2], the system named is HCV genotype 1b replicon (ET replicon). Put plainly: microbe, parasite or virus in culture. The class given is cell-based. Conditions: Hepatitis C virus; for pEC50: Table 2, luciferase activity after 48 hours, read-out: HCV Genotype 1B Replicon EC50.
Excerpt: as §1, §2, §3, §4

One may read the pEC50 as the negative decadic logarithm of the EC50, by convention in mol/L. In the case of `CCCOc1ccc(-c2cc(C(C(=O)OCCC(=O)O)n3cc4nc(-c5cccc(F)c5F)nc-4cn3)on2)c(C(F)(F)F)c1` (centres unmarked) [Compound 16, 3-[([2-(2,3-Difluorophenyl)-5H-imidazo[4,5-d]pyridazin-5-yl]{3-[4-(propyloxy)-2-(trifluoromethyl)phenyl]-5-isoxazolyl}acetyl)oxy]propanoic acid sodium salt], the figures for the negative logarithm of the EC50 (pEC50) in assay [1] and in assay [2] were 7.49 and 8.52, respectively. The EC50 is the concentration at which the effect is half-maximal. Take `CCCOc1ccc(-c2cc(C(C(=O)OCCCOP(=O)(O)O)n3cc4nc(-c5cccc(F)c5F)nc-4cn3)on2)c(C(F)(F)F)c1` (centres unmarked) [Compound 14, 3-(Phosphonooxy)propyl [2-(2,3-difluorophenyl)-5H-imidazo[4,5-d]pyridazin-5-yl]{3-[4-(propyloxy)-2-(trifluoromethyl)phenyl]-5-isoxazolyl}acetate mono sodium salt]: the EC50 in assay [1] (48 h, read-out: HCV Genotype 1A Replicon EC50 (nM)) was 42 nM; in assay [2] (48 h, read-out: HCV Genotype 1B Replicon EC50 (nM)) it was 3 nM. Turning to `CCCOc1ccc(-c2cc(C(C(=O)OCCCCN(C)C)n3cc4nc(-c5cccc(F)c5F)nc-4cn3)on2)c(C(F)(F)F)c1` (centres unmarked) [Compound 173, 4-(Dimethylamino)butyl [2-(2,3-difluorophenyl)-5H-imidazo[4,5-d]pyridazin-5-yl]{3-[4-(propyloxy)-2-(trifluoromethyl)phenyl]-5-isoxazolyl}acetate dihydrochloride], the negative logarithm of the EC50 (pEC50) was 7.70 in assay [1] and 8.52 in assay [2]. Regarding `CCCOc1ccc(-c2cc(C(C(=O)OCCOCCOC)n3cc4nc(-c5cccc(F)c5F)nc-4cn3)on2)c(C(F)(F)F)c1` (centres unmarked) [Compound 9, 2-{[2-(Methyloxy)ethyl]oxy}ethyl [2-(2,3-difluorophenyl)-5H-imidazo[4,5-d]pyridazin-5-yl]{3-[4-(propyloxy)-2-(trifluoromethyl)phenyl]-5-isoxazolyl}acetate], the negative-log EC50 (pEC50) in assay [1] is 8.70; in assay [2] it was 8.40.

For the compound `CCCOc1ccc(-c2cc(C(C(=O)OCCOCCOCCO)n3cc4nc(-c5cccc(F)c5F)nc-4cn3)on2)c(C(F)(F)F)c1` (centres unmarked) [Compound 11, 2-({2-[(2-Hydroxyethyl)oxy]ethyl}oxy)ethyl [2-(2,3-difluorophenyl)-5H-imidazo[4,5-d]pyridazin-5-yl]{3-[4-(propyloxy)-2-(trifluoromethyl)phenyl]-5-isoxazolyl}acetate], the negative-log EC50 (pEC50) in assay [1] is 7.68; in assay [2], 8.52.

With `CCCOc1ccc(-c2cc(C(C(=O)OCCOCCO)n3cc4nc(-c5cccc(F)c5F)nc-4cn3)on2)c(C(F)(F)F)c1` (centres unmarked) [Compound 8, 2-[(2-Hydroxyethyl)oxy]ethyl [2-(2,3-difluorophenyl)-5H-imidazo[4,5-d]pyridazin-5-yl]{3-[4-(propyloxy)-2-(trifluoromethyl)phenyl]-5-isoxazolyl}acetate], the results for the pEC50 in assay [1] and in assay [2] were 8.15 and 8.52, respectively. Taken in the same sequence, the figures for `CCCOc1ccc(-c2cc(C(C(=O)OCCCOS(=O)(=O)O)n3cc4nc(-c5cccc(F)c5F)nc-4cn3)on2)c(C(F)(F)F)c1` (centres unmarked) [Compound 15, 3-(Sulfooxy)propyl [2-(2,3-difluorophenyl)-5H-imidazo[4,5-d]pyridazin-5-yl]{3-[4-(propyloxy)-2-(trifluoromethyl)phenyl]-5-isoxazolyl}acetate sodium salt] were 7.85 and 8.70. As for `CCCOc1ccc(-c2cc(C(C(=O)OC)n3cc4nc(-c5cccc(F)c5F)nc-4cn3)on2)c(C(F)(F)F)c1` (centres unmarked) [Compound 1, Methyl [2-(2,3-difluorophenyl)-5H-imidazo[4,5-d]pyridazin-5-yl]{3-[4-(propyloxy)-2-(trifluoromethyl)phenyl]-5-isoxazolyl}acetate], the negative-log EC50 (pEC50) was 7.77 in assay [1] and 8.52 in assay [2]. For the compound `CCCOc1ccc(-c2ccc(C(C(=O)OCC)n3cc4nc(-c5cccc(F)c5F)nc-4cn3)cn2)c(C(F)(F)F)c1` (centres unmarked) [Compound 40, Ethyl [2-(2,3-difluorophenyl)-5H-imidazo[4,5-d]pyridazin-5-yl]{6-[4-(propyloxy)-2-(trifluoromethyl)phenyl]-3-pyridinyl}acetate], in assay [2], the pEC50 is 6.36.
